# Test results as given in patent US4843070A, “Substituted thiazetoquinoline-3-carboxylic acids and pharmaceutically acceptable salts thereof” (priority 1986, dated 1989).
# Like-named read-outs stand apart in the source and are kept apart here.
# Legend:
# S. epidermidis = assay: MIC by agar plate dilution method, S. epidermidis; type: cell-based; settings: Staphylococcus epidermidis, Test 2, inoculum 10^6, 37° C., 18 hours, read-out: minimum inhibitory concentration (MIC)
# Description: (§1) Test method: The MIC was measured by an agar plate dilution method in accordance with a standard method of Japan Chemotherapeutic Society (cf. Nippon Kagaku Ryoho Gakkaishi, 29(1), 76-79, 1981). Thus, the organisms incubated at 37° C. for 18 hours using sensitivity test broth (Nissei) was diluted to 10^6 CFU/ml using the same broth. […] As a control, enoxacin and ofloxacin were used in Tests 1 and 2, respectively.
# (§2) The numbers of the inoculated bacteria were 10^6 in all cases and the unit of the MIC was micrograms/ml.
# P. aeruginosa E-2 = assay: MIC by agar plate dilution method, P. aeruginosa E-2; type: cell-based; settings: Pseudomonas aeruginosa, read-out: minimum inhibitory concentration (MIC)
# Description: as §1, §2
# S. marcescens IFO 3736 = assay: MIC by agar plate dilution method, S. marcescens IFO 3736; type: cell-based; settings: Serratia marcescens, read-out: minimum inhibitory concentration (MIC)
# Description: as §1, §2
# S. aureus 209-P JC = assay: MIC by agar plate dilution method, S. aureus 209-P JC; type: cell-based; settings: Staphylococcus aureus, read-out: minimum inhibitory concentration (MIC)
# Description: as §1, §2
# Proteus mirabilis 181 = assay: MIC by agar plate dilution method, Proteus mirabilis 181; type: cell-based; settings: read-out: minimum inhibitory concentration (MIC)
# Description: as §1, §2
# S. flexneri = assay: MIC by agar plate dilution method, S. flexneri; type: cell-based; settings: Shigella flexneri, 18 hours, read-out: minimum inhibitory concentration (MIC)
# Description: as §1, §2
# K. pneumoniae K-1966 = assay: MIC by agar plate dilution method, K. pneumoniae K-1966; type: cell-based; settings: Klebsiella pneumoniae, read-out: minimum inhibitory concentration (MIC)
# Description: as §1, §2
# B. subtilis ATCC 6633 = assay: MIC by agar plate dilution method, B. subtilis ATCC 6633; type: cell-based; settings: Bacillus subtilis, read-out: minimum inhibitory concentration (MIC)
# Description: as §1, §2
# M. luteus ATCC 9341 = assay: MIC by agar plate dilution method, M. luteus ATCC 9341; type: cell-based; settings: Micrococcus luteus, read-out: minimum inhibitory concentration (MIC)
# Description: as §1, §2
# E. coli NIHJ JC-2 = assay: MIC by agar plate dilution method, E. coli NIHJ JC-2; type: cell-based; settings: Escherichia coli, read-out: minimum inhibitory concentration (MIC)
# Description: as §1, §2
# P. vulgaris HX-19 = assay: MIC by agar plate dilution method, P. vulgaris HX-19; type: cell-based; settings: Proteus vulgaris, HX19, Test 1, inoculum 10^6, 37° C., 18 hours, read-out: minimum inhibitory concentration (MIC)
# Description: as §1, §2
# A. calcoaceticus 54 = assay: MIC by agar plate dilution method, A. calcoaceticus 54; type: cell-based; settings: read-out: minimum inhibitory concentration (MIC)
# Description: as §1, §2
# E. coli KC-14 = assay: MIC by agar plate dilution method, E. coli KC-14; type: cell-based; settings: Escherichia coli, read-out: minimum inhibitory concentration (MIC)
# Description: as §1, §2
# S. aureus Smith = assay: MIC by agar plate dilution method, S. aureus Smith; type: cell-based; settings: Staphylococcus aureus, read-out: minimum inhibitory concentration (MIC)
# Description: as §1, §2
# E. cloacae No. 1 = assay: MIC by agar plate dilution method, E. cloacae No. 1; type: cell-based; settings: Enterobacter cloacae, read-out: minimum inhibitory concentration (MIC)
# Description: as §1, §2
# [1] = tested on: infections caused by Gram positive bacteria and Pseudomonas aeruginosa (chronic); settings: background statement; cited from earlier work
# [2] = E2, Test 2, P. aeruginosa E-2, inoculum 10^6, 37° C., 18 hours
# [3] = IFO3736, Test 2, S. Marcescens IFO 3736, inoculum 10^6, 37° C., 18 hours
# [4] = Test 2, S. aureus 209-P JC, inoculum 10^6, 37° C., 18 hours
# [5] = Test 2, Proteus mirabilis 181, inoculum 10^6, 37° C., 18 hours
# [6] = K1966, Test 2, K. pneumoniae K-1966, inoculum 10^6, 37° C., 18 hours
# [7] = ATCC6633, Test 2, B. subtilis ATCC 6633, inoculum 10^6, 37° C., 18 hours
# [8] = ATCC9341, Test 2, M. luteus ATTC 9341, inoculum 10^6, 37° C., 18 hours
# [9] = NIHJJC2, Test 2, E. coli NIHJ JC-2, inoculum 10^6, 37° C., 18 hours
# [10] = E2, Test 1, P. aeruginosa E-2, inoculum 10^6, 37° C., 18 hours
# [11] = IFO3736, Test 1, S. marcescens IFO 3736, inoculum 10^6, 37° C., 18 hours
# [12] = Test 1, S. aureus 209-P JC, inoculum 10^6, 37° C., 18 hours
# [13] = Acinetobacter calcoaceticus, Test 1, A. calcoaceticus 54, inoculum 10^6, 37° C., 18 hours
# [14] = KC14, Test 1, E. coli KC-14, inoculum 10^6, 37° C., 18 hours
# [15] = Test 1, S. aureus Smith, inoculum 10^6, 37° C., 18 hours
# [16] = K1966, Test 1, K. pneumoniae K-1966, inoculum 10^6, 37° C., 18 hours
# [17] = Test 1, E. cloacae No. 1, inoculum 10^6, 37° C., 18 hours
# [18] = ATCC6633, Test 1, B. subtilis ATCC 6633, inoculum 10^6, 37° C., 18 hours
# [19] = ATCC9341, Test 1, M. luteus ATCC 9341, inoculum 10^6, 37° C., 18 hours
# [20] = NIHJJC2, Test 1, E. coli NIHJ JC-2, inoculum 10^6, 37° C., 18 hours
SMILES,MIC (S. epidermidis) [µg/mL],MIC (P. aeruginosa E-2; [2]) [µg/mL],MIC (S. marcescens IFO 3736; [3]) [µg/mL],MIC (S. aureus 209-P JC; [4]) [µg/mL],"MIC (S. flexneri; Test 2, inoculum 10^6, 37° C.) [µg/mL]",MIC (B. subtilis ATCC 6633; [7]) [µg/mL],MIC (M. luteus ATCC 9341; [8]) [µg/mL],MIC (P. vulgaris HX-19) [µg/mL],MIC (P. aeruginosa E-2; [10]) [µg/mL],MIC (S. marcescens IFO 3736; [11]) [µg/mL],MIC (S. aureus 209-P JC; [12]) [µg/mL],MIC (A. calcoaceticus 54; [13]) [µg/mL],MIC (E. coli KC-14; [14]) [µg/mL],"MIC (S. flexneri; Test 1, inoculum 10^6, 37° C.) [µg/mL]",MIC (S. aureus Smith; [15]) [µg/mL],MIC (K. pneumoniae K-1966; [16]) [µg/mL],MIC (E. cloacae No. 1; [17]) [µg/mL],MIC (B. subtilis ATCC 6633; [18]) [µg/mL],MIC (M. luteus ATCC 9341; [19]) [µg/mL],MIC (E. coli NIHJ JC-2; [20]) [µg/mL],further results
"O=C(O)c1c2n(c3cc(N4CCNCC4)c(F)cc3c1=O)C(c1ccc(F)cc1)S2 (stereo not drawn) [Table 1 (12), 6-Fluoro-1-(4-fluorophenyl)-4-oxo-7-(1-piperazinyl)-4H-(1,3)thiazeto(3,2-a)quinoline-3-carboxylic acid]",0.39,0.39,0.39,0.2,0.025,0.05,1.56,,,,,,,,,,,,,,MIC (Proteus mirabilis 181; [5]): 0.2 µg/mL; MIC (K. pneumoniae K-1966; [6]): 0.0125 µg/mL; MIC (E. coli NIHJ JC-2; [9]): 0.025 µg/mL
"CC1Sc2c(C(=O)O)c(=O)c3cc(F)c(N4CCNCC4)cc3n21 (stereo not drawn) [Table 1 (13), 6-Fluoro-1-methyl-4-oxo-7-(1-piperazinyl)-4H-(1,3)thiazeto(3,2-a)quinoline-3-carboxylic acid]",3.13,0.2,0.05,0.1,0.0125,0.1,1.56,,,,,,,,,,,,,,"MIC (Proteus mirabilis 181; [5]): 0.025 µg/mL; MIC (K. pneumoniae K-1966; K1966, 18 h): 0.0125 µg/mL; MIC (E. coli NIHJ JC-2; NIHJJC2, 18 h): 0.0125 µg/mL"
"CC1Sc2c(C(=O)O)c(=O)c3cc(F)c(N4CCN(C)CC4)c(N)c3n21 (stereo not drawn) [Table 1 (9), 8-Amino-6-fluoro-1-methyl-7-(4-methyl-1-piperazinyl)-4-oxo-4H-(1,3)thiazeto(3,2-a)quinoline-3-carboxylic acid]",,,,,,,,0.025,1.56,0.39,0.39,0.78,0.05,0.05,0.2,0.1,0.2,0.2,50,0.1,
"COc1c(N2CCN(C)CC2)c(F)cc2c(=O)c(C(=O)O)c3n(c12)C(C)S3 (stereo not drawn) [Table 1 (14), 6-Fluoro-8-methoxy-1-methyl-7-(4-methyl-1-piperazinyl)-4-oxo-4H-(1,3)thiazeto(3,2-a)quinoline-3-carboxylic acid]",0.39,0.39,0.2,0.1,0.0125,0.025,0.2,,,,,,,,,,,,,,"MIC (Proteus mirabilis 181; Proteus mirabilis, 181, 18 h): 0.0125 µg/mL; MIC (K. pneumoniae K-1966; [6]): 0.025 µg/mL; MIC (E. coli NIHJ JC-2; [9]): 0.05 µg/mL"
"O=C(O)c1c2n(c3cc(N4CCNCC4)c(F)cc3c1=O)C(c1ccccc1)S2 (stereo not drawn) [Table 1 (11), 6-Fluoro-4-oxo-1-phenyl-7-(1-piperazinyl)-4H-(1,3)thiazeto(3,2-a)quinoline-3-carboxylic acid]",1.56,0.2,0.05,0.2,0.025,0.05,3.13,,,,,,,,,,,,,,MIC (Proteus mirabilis 181; [5]): 0.05 µg/mL; MIC (K. pneumoniae K-1966; [6]): 0.025 µg/mL; MIC (E. coli NIHJ JC-2; [9]): 0.025 µg/mL
"CC1Sc2c(C(=O)O)c(=O)c3cc(F)c(N4CCC(N)C4)cc3n21.CCS(=O)(=O)O (stereo not drawn) [Table 1 (8), 6-Fluoro-1-methyl-7-(3-amino-1-pyrrolidinyl)-4-oxo-4H-(1,3)thiazeto(3,2-a)quinoline-3-carboxylic acid ethanesulfonate]",,,,,,,,≤ 0.0063,,,,,,≤ 0.0063,,,,,,,"MIC (P. aeruginosa E-2; E2, 18 h): 0.1 µg/mL; MIC (S. marcescens IFO 3736; IFO3736, 18 h): 0.1 µg/mL; MIC (S. aureus 209-P JC; 209P, 18 h): 0.025 µg/mL; MIC (A. calcoaceticus 54; Acinetobacter calcoaceticus, 54, 18 h): 0.78 µg/mL; MIC (E. coli KC-14; KC14, 18 h): ≤ 0.0063 µg/mL; MIC (S. aureus Smith; 18 h): 0.05 µg/mL; MIC (K. pneumoniae K-1966; K1966, 18 h): 0.025 µg/mL; MIC (E. cloacae No. 1; NO.1, 18 h): 0.025 µg/mL; MIC (B. subtilis ATCC 6633; ATCC6633, 18 h): 0.05 µg/mL; MIC (M. luteus ATCC 9341; ATCC9341, 18 h): 0.2 µg/mL; MIC (E. coli NIHJ JC-2; NIHJJC2, 18 h): 0.05 µg/mL"
CCn1cc(C(=O)O)c(=O)c2cnc(N3CCNCC3)nc21 [pipemidic acid],,,,,,,,,,,,,,,,,,,,,activity against infections caused by Gram positive bacteria and Pseudomonas aeruginosa (chronic) [1]: not active
CCn1cc(C(=O)O)c(=O)c2cnc(N3CCCC3)nc21 [piromidic acid],,,,,,,,,,,,,,,,,,,,,activity against infections caused by Gram positive bacteria and Pseudomonas aeruginosa (chronic) [1]: not active
CCn1cc(C(=O)O)c(=O)c2ccc(C)nc21 [nalidixic acid],,,,,,,,,,,,,,,,,,,,,activity against infections caused by Gram positive bacteria and Pseudomonas aeruginosa (chronic) [1]: not active
"CC1Sc2c(C(=O)O)c(=O)c3cc(F)c(N4CCN(Cc5ccc(N)cc5)CC4)cc3n21 (stereo not drawn) [Table 1 (10), 7-(4-(4-Aminobenzyl)-1-piperazinyl)-6-fluoro-1-methyl-4-oxo-4H-(1,3)thiazeto(3,2-a)quinoline-3-carboxylic acid]",,,,,,,,0.1,3.13,0.56,0.05,0.39,0.05,0.1,≤ 0.0063,0.2,0.39,≤ 0.0063,0.39,0.2,
CC1Sc2c(C(=O)O)c(=O)c3cc(Cl)c(N4CCNCC4)cc3n21 (stereo not drawn) [(7)],,,,,,,,0.025,1.56,0.1,0.1,3.13,0.025,0.0125,0.2,0.025,0.05,0.2,1.56,0.05,
CC1Sc2c(C(=O)O)c(=O)c3cc(F)c(N4CCSCC4)cc3n21 (stereo not drawn) [(6)],,,,,,,,≤ 0.0063,0.78,0.78,0.05,0.2,0.05,0.1,≤ 0.0063,0.1,0.39,≤ 0.0063,1.56,0.2,
